The test system of assay [1] is T1, Mycobacteroides abscessus subsp. abscessus MT16_6490.
T1 construct: MT16_6490
Put plainly: microbe, parasite or virus in culture. The conditions noted are these: 48 h, smooth morphotype. More on the design: species or system M. abscessus; Resazurin microtiter assay (REMA), fluorescence; MIC at 90% growth inhibition from Gompertz fit. As for the experimental part: (§1) MIC values were determined using the resazurin microtiter assay (REMA). Cultures were grown to log phase (OD600 of 0.4–0.8) and diluted to OD600 of 0.005. Drugs were prepared in two-fold serial dilutions in 96-well plates with 90 μL of bacteria per well to a final volume of 100 μL. Plates were incubated at 37°C until drug-free wells were turbid (2 days for M. abscessus). Ten μL of resazurin (0.025% wt/vol) was added to each well. Once the drug-free wells turned pink (one doubling time), the fluorescence (ex/em 560nm/590nm) was measured using an Infinite F200 Tecan plate reader. Fluorescence intensities were converted to % viable cells relative to drug-free conditions and fit to the Gompertz equation using GraphPad Prism version 9. MIC values at 90% growth inhibition were determined from the nonlinear regression Gompertz equation. Next, we tested the in vitro activity of EPT against a panel of M. abscessus clinical isolates belonging to the three subspecies of the M. abscessus complex (M. abscessus, M. massiliense, and M. bolletii) with smooth and rough colony morphologies and with different drug susceptibility profiles to various antibiotics. There was no loss in activity against clinical isolates (range of 0.014–0.046 μg/mL) nor different morphologies (S2 Table). To determine the spectrum of activity of EPT, we curated a panel of various mycobacteria and representative gram-positive and gram-negative bacteria. […] Mycobacteria strains were grown in rolling [compound left out] culture at 37°C in Middlebrook 7H9 (Difco) supplemented with 10% albumin dextrose catalase (ADC), 0.2% glycerol, and 0.05% Tween 80 (7H9 complete) or on 7H10 agar plates supplemented with 10% oleic acid ADC and 0.5% glycerol at 37°C. When mentioned, the carbon source was modified from glycerol to acetate or the detergent Tween 80 was removed from the media. Bacillus cereus (clinical isolate), Corynebacterium glutamicum (ATCC 13032), Escherichia coli, and Pseudomonas aeruginosa PAO1 were grown in LB broth. HepG2 cells (ATCC HB-8065) were grown in Dulbecco’s modified Eagle’s medium (DMEM) with phenol red (from Gibco) supplemented with 10% fetal bovine serum at 37°C with 5% CO2.

In assay [2] the test system is T2, Mycobacteroides abscessus subsp. massiliense MT15_1749.
T2 construct: MT15_1749
Put plainly: microbe, parasite or virus in culture. Also noted: species or system M. abscessus; Resazurin microtiter assay (REMA), fluorescence; MIC at 90% growth inhibition from Gompertz fit. The conditions noted are these: 48 h, rough morphotype. The procedure:
as §1

Assay [3] concerns T3, Mycobacteroides abscessus subsp. abscessus ATCC 19977.
T3 construct: ATCC 19977
Put plainly: microbe, parasite or virus in culture. More on the design: species or system M. abscessus; Resazurin microtiter assay (REMA), fluorescence; MIC at 90% growth inhibition from Gompertz fit. The conditions noted are these: ATCC19977, 48 h, rough morphotype. As for the experimental part: as §1

Assay [4] concerns T4, Mycobacteroides abscessus subsp. bolletii Paris 167.
T4 construct: Paris 167
Kind of assay: microbe, parasite or virus in culture. More on the design: species or system M. abscessus; Resazurin microtiter assay (REMA), fluorescence; MIC at 90% growth inhibition from Gompertz fit. The conditions noted are these: 48 h, rough morphotype. The procedure:
as §1

In assay [5] the test system is T5, Mycobacteroides abscessus subsp. abscessus MT16_1065.
T5 construct: MT16_1065
Kind of assay: microbe, parasite or virus in culture. Also noted: species or system M. abscessus; Resazurin microtiter assay (REMA), fluorescence; MIC at 90% growth inhibition from Gompertz fit. The conditions noted are these: 48 h, smooth morphotype. As for the experimental part:
as §1

The test system of assay [6] is T6, Mycobacteroides abscessus subsp. massiliense MT15_1748.
T6 construct: MT15_1748
Put plainly: microbe, parasite or virus in culture. Also noted: species or system M. abscessus; Resazurin microtiter assay (REMA), fluorescence; MIC at 90% growth inhibition from Gompertz fit. The conditions noted are these: 48 h, rough morphotype. As for the experimental part:
as §1

Assay [7] deals with T7, Mycobacteroides abscessus subsp. bolletii AV.
T7 construct: AV
Kind of assay: microbe, parasite or virus in culture. Also noted: species or system M. abscessus; Resazurin microtiter assay (REMA), fluorescence; MIC at 90% growth inhibition from Gompertz fit. The conditions noted are these: 48 h, smooth morphotype. The procedure:
as §1

A further assay deals with E. coli. Kind of assay: microbe, parasite or virus in culture. Also noted: Whole-cell growth inhibition, dose-response MIC (MIC90) by resazurin microtiter assay (REMA), fluorescence read-out. The conditions noted are these: Escherichia coli.
The subject of another assay is M. abscessus. Put plainly: microbe, parasite or virus in culture. The conditions noted are these: Mycobacteroides abscessus. Also noted: Whole-cell growth inhibition, dose-response MIC (MIC90) by resazurin microtiter assay (REMA), fluorescence read-out.
The subject of a further assay is T8, M. tuberculosis H37Rv.
T8 construct: H37Rv
Put plainly: microbe, parasite or virus in culture. More on the design: Whole-cell growth inhibition, dose-response MIC (MIC90) by resazurin microtiter assay (REMA), fluorescence read-out. The conditions noted are these: Mycobacterium tuberculosis, H37RV.

Another assay relates to P. aeruginosa. Put plainly: microbe, parasite or virus in culture. More on the design: Whole-cell growth inhibition, dose-response MIC (MIC90) by resazurin microtiter assay (REMA), fluorescence read-out. The conditions noted are these: Pseudomonas aeruginosa.
The next assay has as its system T9, M. tuberculosis Erdman.
T9 construct: Erdman
Kind of assay: microbe, parasite or virus in culture. More on the design: Whole-cell growth inhibition, dose-response MIC (MIC90) by resazurin microtiter assay (REMA), fluorescence read-out. The conditions noted are these: Mycobacterium tuberculosis, ERDMAN.

The next assay deals with M. avium hominissuis. Put plainly: microbe, parasite or virus in culture. More on the design: Whole-cell growth inhibition, dose-response MIC (MIC90) by resazurin microtiter assay (REMA), fluorescence read-out. The conditions noted are these: Mycobacterium avium.
Another assay has as its system B. cereus. Put plainly: microbe, parasite or virus in culture. Also noted: Whole-cell growth inhibition, dose-response MIC (MIC90) by resazurin microtiter assay (REMA), fluorescence read-out. The conditions noted are these: Bacillus cereus.
The test system of the next assay is M. avium intracellulaire. Kind of assay: microbe, parasite or virus in culture. The conditions noted are these: Mycobacterium avium. Also noted: Whole-cell growth inhibition, dose-response MIC (MIC90) by resazurin microtiter assay (REMA), fluorescence read-out.
The next assay relates to C. glutamicum. Put plainly: microbe, parasite or virus in culture. Also noted: Whole-cell growth inhibition, dose-response MIC (MIC90) by resazurin microtiter assay (REMA), fluorescence read-out. The conditions noted are these: Corynebacterium glutamicum.
For assay [8], the target named is T10, M. abscessus LeuRS editing domain (LeuRSMabs; pMabsED) (Mycobacteroides abscessus, UniProt B1MMK6).
T10 construct: gene leuS; editing domain, residues 303-499 (text on crystals prints 303-498); N-terminal His tag with TEV site, removed; synthetic codon-optimised gene, pET24a(+), E. coli BL21(DE3)
T10 sequence (B1MMK6 303-499): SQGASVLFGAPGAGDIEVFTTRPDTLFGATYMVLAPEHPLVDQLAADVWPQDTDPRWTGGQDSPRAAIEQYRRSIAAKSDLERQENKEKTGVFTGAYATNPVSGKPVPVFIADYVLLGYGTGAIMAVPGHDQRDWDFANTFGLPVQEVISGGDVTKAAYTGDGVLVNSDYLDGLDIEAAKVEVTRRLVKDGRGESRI
Put plainly: isothermal titration calorimetry. In kind it is binding. An excerpt: isothermal titration calorimetry on M. abscessus LeuRS editing domain (LeuRSMabs; pMabsED)
(In general: In ITC the heat of successive injections is recorded.)

In assay [9] the target is T11, M. tuberculosis LeuRS editing domain (LeuRSMtb; pMtbED) (Mycobacterium tuberculosis, UniProt P9WFV1).
T11 construct: gene leuS
Kind of assay: isothermal titration calorimetry. It counts as binding. From the text: isothermal titration calorimetry on M. tuberculosis LeuRS editing domain (LeuRSMtb; pMtbED)

In general, Kd refers to the equilibrium constant for the complex coming apart.

Converted amounts (≈) assume the structure as drawn. Where two headings read alike, the source gives them in different places.

T11 sequence (P9WFV1 311-512 limits assumed): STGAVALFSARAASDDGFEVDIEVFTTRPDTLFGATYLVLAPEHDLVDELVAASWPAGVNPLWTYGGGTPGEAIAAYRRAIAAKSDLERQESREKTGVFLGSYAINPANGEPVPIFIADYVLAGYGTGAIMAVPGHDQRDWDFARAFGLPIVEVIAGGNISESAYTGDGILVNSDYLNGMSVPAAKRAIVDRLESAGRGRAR

For the compound `CC[C@H]1OC(=O)[C@H](C)[C@@H](O[C@H]2C[C@@](C)(OC)[C@@H](O)[C@H](C)O2)[C@H](C)[C@@H](O[C@@H]2O[C@H](C)C[C@H](N(C)C)[C@H]2O)[C@](C)(OC)C[C@@H](C)C(=O)[C@H](C)[C@@H](O)[C@]1(C)O` [Clarithromycin], the MIC in [1] (read-out: MIC CLR) was found to be 2.9 µg/mL (≈ 3.88 µM); in [2] (read-out: MIC CLR), 0.082 µg/mL (≈ 0.11 µM); in assay [3] (read-out: MIC CLR), 0.65 µg/mL (≈ 0.869 µM); in assay [4] (read-out: MIC CLR), 2.8 µg/mL (≈ 3.74 µM); in assay [5] (read-out: MIC CLR) it was 3.4 µg/mL (≈ 4.55 µM); in assay [6] (read-out: MIC CLR), 0.068 µg/mL (≈ 0.0909 µM). Further, the MIC in assay [7] (read-out: MIC CLR) was 0.15 µg/mL (≈ 0.201 µM); in the assay with E. coli (read-out: MIC (µg/mL) / CLR) it was more than 8.2 µg/mL; in the assay with M. abscessus (read-out: MIC (µg/mL) / CLR), 0.9 µg/mL (≈ 1.2 µM); in the assay with M. tuberculosis H37Rv (read-out: MIC (µg/mL) / CLR), more than 1.3 µg/mL; in the assay with P. aeruginosa (read-out: MIC (µg/mL) / CLR), more than 8.2 µg/mL; in the assay with M. tuberculosis Erdman (read-out: MIC (µg/mL) / CLR) it was more than 1.3 µg/mL. Besides, the MIC with M. avium hominissuis (read-out: MIC (µg/mL) / CLR) was 0.18 µg/mL (≈ 0.241 µM); in the assay with B. cereus (read-out: MIC (µg/mL) / CLR), more than 8.2 µg/mL; with M. avium intracellulaire (read-out: MIC (µg/mL) / CLR) it was 0.014 µg/mL (≈ 0.0187 µM); in the assay on C. glutamicum (read-out: MIC (µg/mL) / CLR), more than 8.2 µg/mL.
Regarding `NC[C@H]1OB(O)c2c(OCCCO)cccc21` [epetraborole], the Kd in assay [8] turned out to be 16 ± 4 µM; in [9], 10 ± 4 µM. Further, the MIC in assay [1] (read-out: MIC EPT) was 0.03 µg/mL (≈ 0.127 µM); in assay [2] (read-out: MIC EPT), 0.014 µg/mL (≈ 0.0591 µM); in assay [3] (read-out: MIC EPT) it was 0.11 µg/mL (≈ 0.464 µM); in [4] (read-out: MIC EPT), 0.027 µg/mL (≈ 0.114 µM); in [5] (read-out: MIC EPT), 0.041 µg/mL (≈ 0.173 µM); in [6] (read-out: MIC EPT), 0.022 µg/mL (≈ 0.0928 µM). Moreover, the MIC in [7] (read-out: MIC EPT) was 0.046 µg/mL (≈ 0.194 µM); in the assay on E. coli (read-out: MIC (µg/mL) / EPT) it was 5.7 µg/mL (≈ 24 µM); with M. abscessus (read-out: MIC (µg/mL) / EPT), 0.063 µg/mL (≈ 0.266 µM); with M. tuberculosis H37Rv (read-out: MIC (µg/mL) / EPT), 0.46 µg/mL (≈ 1.94 µM); in the assay with P. aeruginosa (read-out: MIC (µg/mL) / EPT) it was more than 2.7 µg/mL; in the assay with M. tuberculosis Erdman (read-out: MIC (µg/mL) / EPT), 0.19 µg/mL (≈ 0.801 µM). In addition, the MIC with M. avium hominissuis (read-out: MIC (µg/mL) / EPT) is 2.7 µg/mL (≈ 11.4 µM); in the assay on B. cereus (read-out: MIC (µg/mL) / EPT), more than 2.7 µg/mL; in the assay on M. avium intracellulaire (read-out: MIC (µg/mL) / EPT) it was 2.7 µg/mL (≈ 11.4 µM); in the assay on C. glutamicum (read-out: MIC (µg/mL) / EPT), 2 µg/mL (≈ 8.44 µM).
